Source: US20180353461A1, “USE OF CANNABINOIDS AS CERAMIDE-GENERATING ANTICANCER AGENTS IN TUMORS OF THE HEMATOPOIETIC AND LYMPHOID TISSUES” (priority 2014, published 2018)

How the values were obtained:
[1] = test system: U266 cells; assay: SPT expression, ceramide staining and SPT inhibition in U266 cells; assay type: cell-based, human; settings: U266, co-incubation with cannabinoid, 6 hours
Method: Except if otherwise indicated, for the viability assays primary cells were incubated 18 hours, with vehicle (with <0.15% DMSO) or cannabinoid. Meanwhile, the time course assays cells were performed at 0, 2, 6, 18 and 24 h. For the analysis of SPT activity, cells were co-incubated for the first 6 hours with the SPT inhibitor, myriocin, and the cannabinoid, WIN-55 or JWH-133.
Samples (15-25 ug/lane) were subjected to SDS/PAGE in pre-cast polyacrylamide gels AnykD (Bio-Rad Laboratories, Hercules, CA, USA) under reducing and denaturing conditions. Electrophoretic run was performed at a constant current of 15 mA per gel in a Mini-Protean® Tetra Cell (Bio-Rad Laboratories). Once proteins were separated by electrophoresis, were transferred onto PVDF membranes using Trans-Blot® Turbo™ System (Bio-Rad Laboratories). Electrotransference was conducted at constant amperage of 1.2 mA and at up to 25 V of voltage. The blotted membranes were then blocked with 2% bovine serum albumin [(BSA), Santa Cruz Biotechnology] in Tween-Tris buffer saline (TTBS) for 30 min with gentle agitation, and incubated overnight at 4° C. with corresponding primary antibody in TTBS. After twice washing with TTBS, membranes were incubated for 1-2 h at room temperature with suitable conjugated-HRP secondary antibody, and subjected to chemiluminescence detection using Western Blotting Luminol Reagent (Santa Cruz Biotechnology). Loading controls were carried out with an anti-beta-actin and anti-beta-tubulin antibodies (Sigma-Aldrich). Blots were captured using a digital imaging system ImageQuant LAS 4000 (Amersham GE Healthcare) and transferred to a digital image processing software to analyze (Adobe Photoshop CS2, version 9.0., Adobe Systems Inc., San Jose, Calif.).
After cannabinoids and/or antagonists or SPT inhibitor treatment, primary cells and cell lines were washed with PBS, collected and placed on slides (Menzel-Glaser, Thermo Fisher Scientific). Cells were fixed in cold 4% paraformaldehyde for 10 min, treated with sodium borohydride and, permeabilized in 0.02% Triton X-100 in PBS with 10% normal donkey serum for blocking. Then, cells were incubated with the anti-CB1 or anti-CB2 receptor antibodies, anti-active-caspase3, anti-ceramide in blocking buffer overnight at 4° C. in a humid chamber (Simport, Beloeil, QC, Canada). After washing with PBS, samples were further incubated for 90 min with Alexa 647- or Alexa 488—conjugated donkey secondary antibody. After twice washing, first with PBS and then with 50 mM Tris-HCl (pH 7.4), and were dipped in a solution of Sudan Black B (Sigma-Aldrich) in 70% methanol for 5 min. After immunocytochemistry, slides were mounted using Fluoromount Aqueous Mounting Medium (Sigma-Aldrich). Preparations were examined with an Olympus BX-61 microscope (Olympus, Hamburg, Germany) equipped with appropriate filters: FITC/Cy2 (green fluorophores) 460-490 nm bandpass excitation filter and 510-550 nm bandpass emission filter; rhodamine/Cy3 (red fluorophores) 541-551 nm excitation and 572-607 nm emission; and Cy5 (deep red fluorophore) 615-635 nm excitation and 655 nm longpass emission. Digital images were acquired with CellSens Dimension Software (Olympus) and contrasted with Photoshop CS2 Software (Adobe Systems Inc). […]
De novo synthesis of ceramides contribute to the apoptotic process triggered by cannabinoids. […] To this end, we analyzed the expression of serine palmitoyltransferase (SPT), the enzyme that catalyses the rate-limiting step of ceramide synthesis de novo. […]

[2] = test system: HL60 cells; assay: SPT expression, ceramide staining and SPT inhibition in HL60 cells; assay type: cell-based, human; settings: HL60, co-incubation with cannabinoid, 2 hours
Method: Extracted proteins (15-25 ug/well) were separated by sodium dodecyl sulfate-polyacrylamide gel electrophoresis (SDS/PAGE) in pre-cast polyacrylamide gels AnykD (Bio-Rad Laboratories, Hercules, Calif., USA) under reducing and denaturing conditions. Electrophoretic run was performed at a constant current of 15 mA per gel in a Mini-Protean® Tetra Cell (Bio-Rad Laboratories) and were electrophoretically transferred onto PVDF membranes using Trans-Blot® Turbo™ System (Bio-Rad Laboratories). Blocking was performed with 2% bovine serum albumin [(BSA), Santa Cruz Biotechnology] in Tween-Tris buffer saline (TTBS). Membranes were incubated overnight at 4° C. with corresponding primary antibody in TTBS.
Cells were grown on glass cover slips (Menzel-Glaser, Thermo Fisher Scientific) in the presence or absence of WIN 55,212-2. The cover slips were then washed twice in phosphate-buffered saline (PBS), and the cells were fixed in cold 4% paraformaldehyde for 10 min, treated with sodium borohydride and, permeabilized in 0.02% Triton X-100 in PBS with 10% normal donkey serum for blocking. Cell nuclei were stained with diamidino-2-phenylindole [(DAPI), Pierce, Thermo Fisher Scientific)]. Then, cells were incubated with the anti-CB1 or anti-CB2 receptor antibodies or anti-ceramide in blocking buffer overnight at 4° C. in a humid chamber (Simport, Beloeil, QC, Canada). After washing with PBS, samples were further incubated for 90 min with Alexa 647- or Alexa 488-conjugated donkey secondary antibody.
After final washing in PBS, the cover slips were dried and mounted on slides using Fluoromount Aqueous Mounting Medium (Sigma-Aldrich). Changes in the protein expression were visualized by fluorescence microscopy using a specific excitation for each antibody. Digital images were acquired with CellSens Dimension Software (Olympus) and manipulated with Photoshop CS2 Software (Adobe Systems Inc). There was no labeling when the primary antibody was omitted (data not shown).
Additionally, de novo synthesis of ceramides also contribute to the apoptotic process triggered by cannabinoids in AML. We examined whether ceramides participate in the cannabinoid-induced apoptosis in leukemic cells. To this end, we analyzed the expression of serine palmitoyltransferase (SPT), the enzyme that catalyses the rate-limiting step of ceramide synthesis de novo. […] To ensure that this up-regulation of SPT entails an increased of ceramide synthesis, we examined the expression of ceramide by immunohistochemistry. […] Furthermore, to strengthen the engagement of the ceramide in cannabinoid-induced apoptosis, we analyzed the cannabinoid-induce apoptosis after inhibition of ceramide synthesis with Myoricin, a selective SPT inhibitor.

CCCCCCC(=O)CCCCCC/C=C/C[C@@H](O)[C@H](O)[C@@](N)(CO)C(=O)O [Myoricin]
fragmentation of PARP induced by cannabinoid, after blockage of ceramide synthesis [1]: abolished, at least in part | fragmentation of PARP induced by cannabinoid, after blockage of ceramide synthesis [2]: abolished, at least in part
